Measurements reported in US10227357B2, “Compounds and methods for kinase modulation, and indications therefor” (Plexxikon Inc., priority 2012, dated 2019).

How the values were obtained:
c-kit kinase = biological target: T1, c-kit kinase (Homo sapiens, UniProt P10721); experiment: c-Kit biochemical assay, AlphaScreen, 10 μM ATP; details: c-kit biochemical inhibitory activity; read-out: Biochemical activity (IC50 μM) Kit
T1 construct: The c-kit (or kinase domain thereof) is an active kinase in AlphaScreen; poly-Histidine tag (in-house protein only) (cleaved yes); host or cells: E. coli BL21(DE3)RIL, co-expressed with PTP1B
Procedure, shortened: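 His-tagged c-Kit expressed in E. coli with co-expressed PTP1B (dephosphorylated), tag removed; 0.1 ng per reaction with biotinylated-peptide substrate in 50 mM HEPES pH 7.2, 5 mM MgCl2, 5 mM MnCl2, 5% DMSO, 10 μM ATP, 1 h at room temperature. Phosphorylation detected by AlphaScreen (streptavidin donor, PY20 acceptor beads); IC50 from 8-point 1:3 dilution series.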

c-kit mutant D816V = biological target: T2, c-kit mutant D816V (Homo sapiens, UniProt P10721, D816V/DEL694-753); experiment: c-Kit mutant D816V biochemical assay, AlphaScreen; details: c-kit D816V biochemical inhibitory activity; read-out: Biochemical activity (IC50 μM) Kit D816V
T2 construct: residues 551-934, kinase insertion domain residues 694-753 deleted; 6x-histidine (N); made in house; host or cells: E. coli Arctic Express (DE3) RIL (Stratagene)
Procedure, shortened: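 Purified His-tagged c-Kit D816V (E. coli-expressed) assayed in 25 mM HEPES pH 7.2 with Mg/Mn, 5% DMSO and 10 μM ATP, 30 min at room temperature, 8-point 1:3 dilutions. Phosphorylation detected by AlphaScreen with streptavidin donor and PY20 acceptor beads; IC50 from signal versus concentration.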

T1 sequence (P10721 26-976): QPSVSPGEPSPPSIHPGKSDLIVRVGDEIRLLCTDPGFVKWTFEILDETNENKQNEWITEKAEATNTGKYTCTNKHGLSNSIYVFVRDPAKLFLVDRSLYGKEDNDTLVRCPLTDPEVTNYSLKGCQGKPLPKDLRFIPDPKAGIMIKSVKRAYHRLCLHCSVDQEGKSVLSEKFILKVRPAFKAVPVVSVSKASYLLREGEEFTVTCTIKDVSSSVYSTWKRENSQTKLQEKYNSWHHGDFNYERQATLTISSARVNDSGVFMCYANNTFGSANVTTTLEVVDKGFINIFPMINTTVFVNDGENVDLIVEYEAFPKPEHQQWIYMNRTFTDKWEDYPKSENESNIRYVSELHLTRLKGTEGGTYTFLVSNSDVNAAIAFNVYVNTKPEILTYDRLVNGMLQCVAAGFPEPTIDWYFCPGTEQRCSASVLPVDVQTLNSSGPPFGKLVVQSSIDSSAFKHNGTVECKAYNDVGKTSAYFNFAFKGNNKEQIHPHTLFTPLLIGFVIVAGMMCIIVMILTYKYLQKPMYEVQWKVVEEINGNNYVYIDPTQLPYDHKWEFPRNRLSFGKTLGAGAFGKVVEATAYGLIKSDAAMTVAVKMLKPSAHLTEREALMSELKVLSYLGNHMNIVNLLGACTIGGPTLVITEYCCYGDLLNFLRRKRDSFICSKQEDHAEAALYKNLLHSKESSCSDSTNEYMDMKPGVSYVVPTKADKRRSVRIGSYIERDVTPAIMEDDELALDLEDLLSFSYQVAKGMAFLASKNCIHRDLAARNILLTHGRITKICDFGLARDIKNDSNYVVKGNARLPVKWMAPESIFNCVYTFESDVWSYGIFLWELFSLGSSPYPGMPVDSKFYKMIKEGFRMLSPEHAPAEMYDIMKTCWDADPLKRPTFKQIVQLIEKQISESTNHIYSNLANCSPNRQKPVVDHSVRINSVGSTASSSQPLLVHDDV
T2 sequence (P10721 with tags, fused parts or gaps DEL694-753/D816V): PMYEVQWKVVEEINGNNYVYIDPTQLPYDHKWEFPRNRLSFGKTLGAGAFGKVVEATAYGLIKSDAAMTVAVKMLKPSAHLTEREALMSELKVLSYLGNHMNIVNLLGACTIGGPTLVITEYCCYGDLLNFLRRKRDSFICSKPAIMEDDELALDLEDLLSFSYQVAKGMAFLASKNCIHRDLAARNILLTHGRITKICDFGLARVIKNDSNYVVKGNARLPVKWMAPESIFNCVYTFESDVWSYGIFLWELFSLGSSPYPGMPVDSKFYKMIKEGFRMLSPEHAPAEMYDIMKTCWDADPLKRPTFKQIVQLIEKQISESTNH

| SMILES | IC50 (c-kit kinase) [µM] | IC50 (c-kit mutant D816V) [µM] |
| --- | --- | --- |
| O=S(=O)(Nc1ccc(-c2ncnc3[nH]c(-c4cc(F)ccc4F)cc23)c(F)c1)C1CC1 [P-0338, N-[4-[6-(2,5-difluorophenyl)-7H-pyrrolo[2,3-d]pyrimidin-4-yl]-3-fluoro-phenyl]cyclopropanesulfonamide] | 10 to 200 | 1 to 10 |
| COc1cc2c(-c3ccc(NS(=O)(=O)c4ccc(Cl)cc4)cc3F)ncnc2cc1OCCCN1CCCCC1 [P-0256, 4-chloro-N-[3-fluoro-4-[6-methoxy-7-[3-(1-piperidyl)propoxy]quinazolin-4-yl]phenyl]benzenesulfonamide] | 0.0001 to 1 | 0.0001 to 1 |
| C[C@H](NC(=O)N1CCN(c2ncnc3[nH]c(-c4ccc(F)cc4)cc23)C[C@H]1C)c1ccc(Cl)cc1 [P-0029, (2R)-N-[(1S)-1-(4-chlorophenyl)ethyl]-4-[6-(4-fluorophenyl)-7H-pyrrolo[2,3-d]pyrimidin-4-yl]-2-methyl-piperazine-1-carboxamide] | 10 to 200 | 0.0001 to 1 |
| COc1cc(-c2cc3c(N4CCN(C(=O)N[C@@H](C)c5ccc(Cl)cc5)C(C)(C)C4)ncnc3[nH]2)ccn1 [P-0710, N-[(1S)-1-(4-chlorophenyl)ethyl]-4-[6-(2-methoxy-4-pyridyl)-7H-pyrrolo[2,3-d]pyrimidin-4-yl]-2,2-dimethyl-piperazine-1-carboxamide] | 10 to 200 | 0.0001 to 1 |
| COc1cc2c(-c3ccc(NS(C)(=O)=O)cc3F)ncnc2cc1OCCCN1CCCCC1 [P-0258, N-[3-fluoro-4-[6-methoxy-7-[3-(1-piperidyl)propoxy]quinazolin-4-yl]phenyl]methanesulfonamide] | 1 to 10 | 0.0001 to 1 |
| C[C@H](NC(=O)N1CCN(c2ncnc3[nH]c(-c4ccc(Cl)cc4)cc23)C[C@H]1C)c1ccc(F)cc1 [P-0023, (2R)-4-[6-(4-chlorophenyl)-7H-pyrrolo[2,3-d]pyrimidin-4-yl]-N-[(1S)-1-(4-fluorophenyl)ethyl]-2-methyl-piperazine-1-carboxamide] | 10 to 200 | 0.0001 to 1 |
| COc1cc2ncnc(-c3ccc(S(=O)(=O)Nc4ccc(F)cc4)cc3F)c2cc1OCCCN1CCOCC1 [P-0248, 3-fluoro-N-(4-fluorophenyl)-4-[7-methoxy-6-(3-morpholinopropoxy)quinazolin-4-yl]benzenesulfonamide] | 10 to 200 | 1 to 10 |
| O=S(=O)(NC1CCN(c2ncnc3[nH]ccc23)CC1)c1cc(F)ccc1F [P-0539, 2,5-difluoro-N-[1-(7H-pyrrolo[2,3-d]pyrimidin-4-yl)-4-piperidyl]benzenesulfonamide] | 10 to 200 | 10 to 200 |
| C[C@H](NC(=O)N1CCN(c2ncnc3cc(-c4ccc(F)cc4)sc23)C[C@H]1C)c1cccc(F)c1 [P-0585, (2R)-N-[(1S)-1-(3-fluorophenyl)ethyl]-4-[6-(4-fluorophenyl)thieno[3,2-d]pyrimidin-4-yl]-2-methyl-piperazine-1-carboxamide] | 1 to 10 | 1 to 10 |
| C[C@H](NC(=O)N1CCN(c2ncnc3cc(C4=CC(C)(C)NC(C)(C)C4)sc23)CC1)c1cccc(Cl)c1 [P-0569, N-[(1S)-1-(3-chlorophenyl)ethyl]-4-[6-(2,2,6,6-tetramethyl-1,3-dihydropyridin-4-yl)thieno[3,2-d]pyrimidin-4-yl]piperazine-1-carboxamide] | 10 to 200 | 0.0001 to 1 |
| O=C(Nc1ccc(OC(F)(F)F)cc1)N1CCN(c2ncnc3[nH]c(-c4ccc(C5CC5)nc4)cc23)CC1 [P-0111, 4-[6-(6-cyclopropyl-3-pyridyl)-7H-pyrrolo[2,3-d]pyrimidin-4-yl]-N-[4-(trifluoromethoxy)phenyl]piperazine-1-carboxamide] | 1 to 10 | 10 to 200 |
| COc1cccc([C@H](C)NC(=O)N2CCN(c3ncnc4cc(N5CCOCC5)sc34)CC2(C)C)c1 [P-0560, N-[(1S)-1-(3-methoxyphenyl)ethyl]-2,2-dimethyl-4-(6-morpholinothieno[3,2-d]pyrimidin-4-yl)piperazine-1-carboxamide] | 1 to 10 | 0.0001 to 1 |
| NC(=O)c1cccc(-c2cc3c(N4CCN(C(=O)Nc5ccc(OC(F)(F)F)cc5)CC4)ncnc3[nH]2)c1 [P-0078, 4-[6-(3-carbamoylphenyl)-7H-pyrrolo[2,3-d]pyrimidin-4-yl]-N-[4-(trifluoromethoxy)phenyl]piperazine-1-carboxamide] | 0.0001 to 1 | 10 to 200 |
| C[C@H](NC(=O)N1CCN(c2ncnc3cc(C4=CCN(S(C)(=O)=O)CC4)sc23)CC1(C)C)c1cccc(Cl)c1 [P-0553, N-[(1S)-1-(3-chlorophenyl)ethyl]-2,2-dimethyl-4-[6-(1-methylsulfonyl-3,6-dihydro-2H-pyridin-4-yl)thieno[3,2-d]pyrimidin-4-yl]piperazine-1-carboxamide] | 1 to 10 | 0.0001 to 1 |
| Cc1cc2c(N3CCN(C(=O)N[C@@H](C)c4cccc(OC(F)F)c4)C(C)(C)C3)ncnc2[nH]1 [P-0645, N-[(1S)-1-[3-(difluoromethoxy)phenyl]ethyl]-2,2-dimethyl-4-(6-methyl-7H-pyrrolo[2,3-d]pyrimidin-4-yl)piperazine-1-carboxamide] | 10 to 200 | 1 to 10 |
| CCc1ccc(S(=O)(=O)Nc2ccc(-c3ncnc4[nH]c(C)cc34)c(F)c2)cc1 [P-0292, 4-ethyl-N-[3-fluoro-4-(6-methyl-7H-pyrrolo[2,3-d]pyrimidin-4-yl)phenyl]benzenesulfonamide] | 1 to 10 | 0.0001 to 1 |
| [2H]C([2H])([2H])S(=O)(=O)Nc1ccc(-c2ncnc3[nH]c(-c4ccc(F)cc4)cc23)cc1F [P-0367, 1,1,1-trideuterio-N-[2-fluoro-4-[6-(4-fluorophenyl)-7H-pyrrolo[2,3-d]pyrimidin-4-yl]phenyl]methanesulfonamide] | 10 to 200 | 0.0001 to 1 |
| CCCCS(=O)(=O)Nc1ccc(-c2cc3c(-c4ccc(NS(=O)(=O)CCCC)cc4)ncnc3[nH]2)cc1 [P-0388, N-[4-[4-[4-(butylsulfonylamino)phenyl]-7H-pyrrolo[2,3-d]pyrimidin-6-yl]phenyl]butane-1-sulfonamide] | 10 to 200 | 0.0001 to 1 |
| COCCOc1cc2ncnc(-c3ccc(NS(=O)(=O)c4cccc(F)c4)cc3F)c2cc1OCCOC [P-0260, N-[4-[6,7-bis(2-methoxyethoxy)quinazolin-4-yl]-3-fluoro-phenyl]-3-fluoro-benzenesulfonamide] | 1 to 10 | 0.0001 to 1 |
| C[C@H](NC(=O)N1CCN(c2ncnc3[nH]c(-c4ccncc4)cc23)C[C@H]1C)c1ccc(F)cc1 [P-0058, (2R)-N-[(1S)-1-(4-fluorophenyl)ethyl]-2-methyl-4-[6-(4-pyridyl)-7H-pyrrolo[2,3-d]pyrimidin-4-yl]piperazine-1-carboxamide] | 1 to 10 | 0.0001 to 1 |
| C[C@H](NC(=O)N1CCN(c2ncnc3[nH]c(-c4cnn(C)c4)cc23)C[C@H]1C)c1ccc(F)cc1 [P-0725, (2R)-N-[(1S)-1-(4-fluorophenyl)ethyl]-2-methyl-4-[6-(1-methylpyrazol-4-yl)-7H-pyrrolo[2,3-d]pyrimidin-4-yl]piperazine-1-carboxamide] | 0.0001 to 1 | 0.0001 to 1 |
| COc1cc2c(-c3ccc(NS(=O)(=O)N4CCCC4)cc3F)ncnc2cc1OCCCN1CCCCC1 [P-0253, N-[3-fluoro-4-[6-methoxy-7-[3-(1-piperidyl)propoxy]quinazolin-4-yl]phenyl]pyrrolidine-1-sulfonamide] | 1 to 10 | 0.0001 to 1 |
| Cc1cc2c(-c3ccc(S(=O)(=O)Nc4ccc(F)cc4)c(F)c3)ncnc2[nH]1 [P-0343, 2-fluoro-N-(4-fluorophenyl)-4-(6-methyl-7H-pyrrolo[2,3-d]pyrimidin-4-yl)benzenesulfonamide] | 10 to 200 | 1 to 10 |
| Cc1cc2c(-c3ccc(NS(=O)(=O)c4cc(Cl)cs4)cc3)ncnc2[nH]1 [P-0304, 4-chloro-N-[4-(6-methyl-7H-pyrrolo[2,3-d]pyrimidin-4-yl)phenyl]thiophene-2-sulfonamide] | 0.0001 to 1 | 1 to 10 |
| CC1(C)CN(c2ncnc3cc(-c4ccc(F)cc4)sc23)CCN1 [P-0595, 4-(3,3-dimethylpiperazin-1-yl)-6-(4-fluorophenyl)thieno[3,2-d]pyrimidine] | 10 to 200 | 10 to 200 |
| Cc1cc2c(-c3ccc(NS(=O)(=O)c4cc(F)cc(F)c4)cc3F)ncnc2[nH]1 [P-0342, 3,5-difluoro-N-[3-fluoro-4-(6-methyl-7H-pyrrolo[2,3-d]pyrimidin-4-yl)phenyl]benzenesulfonamide] | 10 to 200 | 10 to 200 |
| COc1cc(-c2cc3c(N4CCN(C(=O)N[C@@H](C)c5cccc(Cl)c5)C(C)(C)C4)ncnc3[nH]2)ccn1 [P-0650, N-[(1S)-1-(3-chlorophenyl)ethyl]-4-[6-(2-methoxy-4-pyridyl)-7H-pyrrolo[2,3-d]pyrimidin-4-yl]-2,2-dimethyl-piperazine-1-carboxamide] | 1 to 10 | 0.0001 to 1 |
| COc1cccc([C@H](C)NC(=O)N2CCN(c3ncnc4[nH]c(-c5ccc(C#N)cc5)cc34)CC2(C)C)c1 [P-0687, 4-[6-(4-cyanophenyl)-7H-pyrrolo[2,3-d]pyrimidin-4-yl]-N-[(1S)-1-(3-methoxyphenyl)ethyl]-2,2-dimethyl-piperazine-1-carboxamide] | 10 to 200 | 1 to 10 |
